Experimental data as given in PubChem BioAssay (NCI).
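Protocol summary: plate cells (96-well), add compound at 5 concentrations, incubate 48 h, interpolate endpoints linearly. TGI marks complete inhibition of growth.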

Legend:
Test in all cases: growth of human tumour cells (NCI), 48 h
786-0 renal = test system: 786-0 renal
A498 renal = test system: A498 renal
A549 NSCLC = test system: A549 NSCLC
ACHN renal = test system: ACHN renal
BT-549 breast = test system: BT-549 breast
CAKI-1 renal = test system: CAKI-1 renal
CCRF-CEM leukemia = test system: CCRF-CEM leukemia
COLO 205 colon = test system: COLO 205 colon
DU-145 prostate = test system: DU-145 prostate
EKVX NSCLC = test system: EKVX NSCLC
HCT-116 colon = test system: HCT-116 colon
HCT-15 colon = test system: HCT-15 colon
HL-60(TB) leukemia = test system: HL-60(TB) leukemia
HOP-62 NSCLC = test system: HOP-62 NSCLC
HOP-92 NSCLC = test system: HOP-92 NSCLC
HS 578T breast = test system: HS 578T breast
HT29 colon = test system: HT29 colon
IGROV1 ovarian = test system: IGROV1 ovarian
K-562 leukemia = test system: K-562 leukemia
KM12 colon = test system: KM12 colon
LOX IMVI melanoma = test system: LOX IMVI melanoma
M14 melanoma = test system: M14 melanoma
MALME-3M melanoma = test system: MALME-3M melanoma
MDA-MB-231 breast = test system: MDA-MB-231 breast
MDA-MB-435 = test system: MDA-MB-435
MDA-N = test system: MDA-N
MOLT-4 leukemia = test system: MOLT-4 leukemia
NCI-H226 lung = test system: NCI-H226 lung
NCI-H23 lung = test system: NCI-H23 lung
NCI-H460 lung = test system: NCI-H460 lung
NCI-H522 lung = test system: NCI-H522 lung
NCI/ADR-RES ovarian = test system: NCI/ADR-RES ovarian
OVCAR-3 ovarian = test system: OVCAR-3 ovarian
OVCAR-4 ovarian = test system: OVCAR-4 ovarian
OVCAR-5 ovarian = test system: OVCAR-5 ovarian
OVCAR-8 ovarian = test system: OVCAR-8 ovarian
PC-3 prostate = test system: PC-3 prostate
RPMI-8226 leukemia = test system: RPMI-8226 leukemia
RXF 393 renal = test system: RXF 393 renal
SF-268 CNS = test system: SF-268 CNS
SF-295 CNS = test system: SF-295 CNS
SF-539 CNS = test system: SF-539 CNS
SK-MEL-2 melanoma = test system: SK-MEL-2 melanoma
SK-MEL-28 melanoma = test system: SK-MEL-28 melanoma
SK-MEL-5 melanoma = test system: SK-MEL-5 melanoma
SK-OV-3 ovarian = test system: SK-OV-3 ovarian
SN12C renal = test system: SN12C renal
SNB-19 CNS = test system: SNB-19 CNS
SR leukemia = test system: SR leukemia
SW-620 colon = test system: SW-620 colon
T-47D breast = test system: T-47D breast
TK-10 renal = test system: TK-10 renal
U251 CNS = test system: U251 CNS
UACC-257 melanoma = test system: UACC-257 melanoma
UACC-62 melanoma = test system: UACC-62 melanoma
UO-31 renal = test system: UO-31 renal

Measured: TGI

Cc1ccc2c(c1)NC(=O)CCSSCCC(=O)N2
> 100 µM: all assays above
